{
  "source": "patent US20090011410A1",
  "about": "“METHOD FOR TAILORING ADMINISTRATION OF DRUGS BY QUANTITATION OF MRNA” (priority 2004, published 2009)",
  "key": {"PUMA mRNA": {"tested_on": "PUMA mRNA", "assay": "drug-induced PUMA mRNA expression in whole blood of healthy adults", "format": "cell-based, human", "conditions": "for kinetics of PUMA induction: heparinized whole blood, 0-8 hours at 37° C., 20 μM BLM, 100 μM VP-16 (FIG. 5)", "protocol": "In 8-well strip microtubes, 1.4 μl of 50× concentrations of drugs or controls (phosphate buffered saline (PBS) or DMSO) were added, and stored at −20° C. until use. […] Seventy μl of fresh heparinized whole blood was added into each well in triplicate, and incubated at 37° C. for 2-8 hours with the cap closed. For radiation treatment, blood was stimulated at designated doses using cesium-137. After each treatment, 50 μl of whole blood was transferred to filterplates as described below.\nThe mRNA and cDNA were prepared from whole blood. In brief, home-made 96-well filterplates were placed over collection plates, and 150 μl 5 mM Tris, pH 7.4, was applied. Following centrifugation at 120×g for 1 min at 4° C., 50 μl of blood samples were applied to each well and immediately centrifuged at 120×g for 2 min at 4° C., followed by washing of each well with 300 μl PBS once with centrifugation at 2000×g for 5 min at 4° C. Then, 60 μl stock lysis buffer, containing for example 0.5% N-Lauroylsarcosine, 4×SSC, 10 mM Tris HCl, pH 7.4, 1 mM EDTA, 0.1% IGEPAL CA-630, and 1.791 M guanidine thiocyanate, supplemented with 1% 2-mercaptoethanol (Bio Rad, Hercules, Calif., USA), 0.5 mg/ml proteinase K (Pierce, Rockford, Ill., USA), 0.1 mg/ml salmon sperm DNA (5 Prime Eppendorf/Brinkmann, Westbury, N.Y., USA), 0.1 mg/ml E. coli tRNA (Sigma), a cocktail of 10 mM each of the specific reverse primers shown in Table 1, and standard RNA34 oligonucleotides, were applied to the filterplates, followed by incubation at 37° C. for 10 min. The filterplates were then placed over oligo(dT)-immobilized microplates (GenePlate, RNAture), and centrifuged at 2000×g for 5 min at 4° C. Following overnight storage at 4° C., the microplates were washed with 100 μl plain lysis buffer 3 times, followed by 150 μl of wash buffer (0.5 M NaCl, 10 mM Tris, pH 7.4, 1 mM EDTA) 3 times at 4° C. The cDNA was directly synthesized in each well by adding 30 μl buffer containing 1×RT-buffer, 1.25 mM each of dNTP, 4 units rRNasin, and 80 units of MMLV reverse transcriptase (Promega) (without primers), and incubation at 37° C. for 2 hours. The specific primer-primed cDNA existed in solution, and oligo(dT)-primed cDNA stayed immobilized in the microplate. For TaqMan PCR (FIGS. 1, 3, 4), the resultant 4 μl cDNA solution was directly transferred to 384-well PCR plates, to which 5 μl of TaqMan universal master mix (ABI) and 1 μl oligonucleotide cocktail (15 μM each of forward and reverse primer, and 3-6 μM TaqMan probe) were applied, and PCR was conducted in PRISM 7900HT (ABI), with one cycle of 95° C. for 10 min followed by 45 cycles of 95° C. for 30 sec, 55° C. for 30 sec, and 60° C. for 1 min. For SYBR Green PCR (see FIG. 6), cDNA was diluted 3-4 fold in water, and 4 μl cDNA solution was directly transferred to 384-well PCR plates, to which 5 μl of a master mix (BioRad, Hercules, Calif.) and 1 μl of oligonucleotide cocktail (15 μM each of forward and reverse primer) were applied, and PCR was conducted in PRISM 7900HT (ABI), with one cycle of 95° C. for 10 min followed by 45 cycles of 95° C. for 30 sec and 60° C. for 1 min. Each gene was amplified in separate wells. The Ct was determined by analytical software (SDS, ABI). Although 1×RT buffer was used as a negative control, none of the primer pairs produced non-specific primer-dimers under these experimental conditions. For PUMA in FIG. 8, immobilized cDNA on the oligo(dT)-immobilized microplates was directly amplified in an iCycler (BioRad).\nQuantitation of various mRNAs was conducted using the following method. Triplicate aliquots of 50 μl each of heparinized whole blood was applied to 96-well filterplates to trap leukocytes. The filterplates were placed over collection plates, and 150 μl 5 mM Tris, pH 7.4, was applied. […]"}, "p21 mRNA": {"tested_on": "p21 mRNA", "assay": "drug-induced p21 mRNA expression in whole blood of leukemia and lymphoma patients", "format": "cell-based, human"}, "[1]": {"conditions": "20 μM BLM or 100 μM VP-16, 4 hours at 37° C. (FIG. 6)"}},
  "data": [
    {"molecule": "COc1cc([C@@H]2c3cc4c(cc3[C@@H](O[C@@H]3O[C@@H]5CO[C@@H](C)O[C@H]5[C@H](O)[C@H]3O)[C@H]3COC(=O)[C@H]23)OCO4)cc(OC)c1O", "note": "[VP-16, etoposide]", "values": [
      {"measurement": "PUMA induction", "setting": "PUMA mRNA; [1]", "result": "responses were confirmed in all individuals"},
      {"measurement": "PUMA induction", "setting": "PUMA mRNA; 100 μM VP-16, 2 hours at 37° C. (FIG. 9C)", "result": "induced"},
      {"measurement": "kinetics of PUMA induction", "setting": "PUMA mRNA", "result": "transient induction"},
      {"measurement": "p21 mRNA induction", "setting": "p21 mRNA; leukemic lymphoma patient 2, 2 hours at 37° C., drug concentrations (FIG. 3)", "result": "induced"}
    ]},
    {"molecule": "bleomycin [BLM]", "values": [
      {"measurement": "concentration at which significant induction of PUMA was observed", "setting": "PUMA mRNA; 0-20 μM BLM, 4 hours at 37° C. (FIG. 7)", "result": "more than 0.1 VM"},
      {"measurement": "PUMA induction", "setting": "PUMA mRNA; [1]", "result": "responses were confirmed in all individuals"},
      {"measurement": "PUMA induction", "setting": "PUMA mRNA; BLM at concentrations as low as 0.2 μM, 2 hours at 37° C., all cases (FIG. 10C)", "result": "induced"},
      {"measurement": "kinetics of PUMA induction", "setting": "PUMA mRNA", "result": "increased continuously for 8 hours"},
      {"measurement": "BLM-induced p21 responses (ΔCt) compared with healthy donors", "setting": "p21 mRNA; 1 μM BLM, 2 hours at 37° C., 13 leukemia and lymphoma patients vs 27 healthy donors, p=0.000002 (FIG. 15)", "result": "less than those of healthy control"}
    ]}
  ]
}
